Source: patent publication US6261814A, “Carboxylic acid reductase, and methods of using same” (University of Iowa Research Foundation, priority 1998, dated 2001)

Key:
[1] = molecular target: T1, carboxylic acid reductase (aryl aldehyde oxidoreductase) (Nocardia iowensis, UniProt Q6RKB1); experiment: Kinetic properties of the purified carboxylic acid reductase (standard enzyme assay); conditions: for Vmax: purified enzyme, mean of three determinations
Experimental: (§1) Enzyme assay. The standard aryl-aldehyde oxidoreductase assay solution contained 0.15 mM […], 1 mM ATP, and 5 mM sodium benzoate, 10 mM MgCl2 and 0.01 to 0.3 units of enzyme in 50 mM Tris-HCl buffer in a final volume of 0.7 ml. The reference cuvette contained all components except for benzoate. Enzyme reactions were initiated by adding enzyme, and they were monitored by recording the absorption decrease at 340 nm at 25° C. with a Shimadzu 160 spectrophotometer.
Kinetic constants were obtained by fitting experimental data with the EZ-FIT program developed by Perrella (Perrella, Anal. Biochem. 174:437-447 (1987)).
S(+)-α-Methyl-4-[2-methylpropyl]-benzeneacetic acid (ibuprofen) was from Aldrich Chemical Co. R(-) isomer of ibuprofen was a gift from Dr. Ching-Shih Chen, University of Rhode Island (Chen et al., Biochim. Biophys. Acta 1033:1-6 (1990)). […] Substrate enantiopurities were checked by specific rotation determination for each isomer (Chen and Rosazza, Appl. Environ. Microbiol. 60(4):1292-1296 (1994)).

[2] = system: Nocardia sp. NRRL 5646; experiment: Induction of the enzyme by benzoate in stage two cultures; assay type: cell-based; conditions: NRRL5646, 24 h, read-out: induction of specific activity of aryl aldehyde oxidoreductase in crude extracts
Experimental: Shaken flask cultures were grown by a standard two stage incubation protocol (Betts et al., J. Med. Chem. 17:599-602 (1974)) in 200 ml of sterile medium held in stainless steel-capped 1-liter DeLong culture flasks. The medium, containing (wt/vol) 2% glucose, 0.5% yeast extract, 0.5% soybean flour, 0.5% NaCl, and 0.5% K2 HPO4 in distilled water, was adjusted to pH 7.2 with 6 N HCl, and then autoclaved at 121° C. for 20 min. Cultures were incubated by shaking at 250 rpm at 28° C. on New Brunswick Scientific, C25 Gyrotory shakers. A 10% inoculum derived from a 72-hour first-stage culture was used to initiate the second-stage culture, which was incubated as before. […] The culture was harvested 24 hours after the addition of benzoate, the cells were collected from the medium by centrifugation at 8,000×g for 20 min., and washed twice with 0.9% NaCl. Cell pellets were stored at -38° C. until needed. Typical wet cell yields by this cultivation process were approximately 25 g/liter.
As a result, it was determined that the specific activity of aryl aldehyde oxidoreductase in crude extracts of Nocardia sp. NRRL 5646 could be induced up to 10 fold by the addition of up to 5 mg/ml benzoate to the 24 hour, stage two cultures.

[3] = molecular target: T2, oxidoreductase from Neurospora crassa (Neurospora crassa, UniProt Q7RW48); conditions: Eur. J. Biochem. 8:413 (1969); cited from earlier work
T2 construct: host or cells: crude Neurospora crassa preparation (Eur. J. Biochem. 8:413 (1969))
T2 sequence (Q7RW48 1-1052): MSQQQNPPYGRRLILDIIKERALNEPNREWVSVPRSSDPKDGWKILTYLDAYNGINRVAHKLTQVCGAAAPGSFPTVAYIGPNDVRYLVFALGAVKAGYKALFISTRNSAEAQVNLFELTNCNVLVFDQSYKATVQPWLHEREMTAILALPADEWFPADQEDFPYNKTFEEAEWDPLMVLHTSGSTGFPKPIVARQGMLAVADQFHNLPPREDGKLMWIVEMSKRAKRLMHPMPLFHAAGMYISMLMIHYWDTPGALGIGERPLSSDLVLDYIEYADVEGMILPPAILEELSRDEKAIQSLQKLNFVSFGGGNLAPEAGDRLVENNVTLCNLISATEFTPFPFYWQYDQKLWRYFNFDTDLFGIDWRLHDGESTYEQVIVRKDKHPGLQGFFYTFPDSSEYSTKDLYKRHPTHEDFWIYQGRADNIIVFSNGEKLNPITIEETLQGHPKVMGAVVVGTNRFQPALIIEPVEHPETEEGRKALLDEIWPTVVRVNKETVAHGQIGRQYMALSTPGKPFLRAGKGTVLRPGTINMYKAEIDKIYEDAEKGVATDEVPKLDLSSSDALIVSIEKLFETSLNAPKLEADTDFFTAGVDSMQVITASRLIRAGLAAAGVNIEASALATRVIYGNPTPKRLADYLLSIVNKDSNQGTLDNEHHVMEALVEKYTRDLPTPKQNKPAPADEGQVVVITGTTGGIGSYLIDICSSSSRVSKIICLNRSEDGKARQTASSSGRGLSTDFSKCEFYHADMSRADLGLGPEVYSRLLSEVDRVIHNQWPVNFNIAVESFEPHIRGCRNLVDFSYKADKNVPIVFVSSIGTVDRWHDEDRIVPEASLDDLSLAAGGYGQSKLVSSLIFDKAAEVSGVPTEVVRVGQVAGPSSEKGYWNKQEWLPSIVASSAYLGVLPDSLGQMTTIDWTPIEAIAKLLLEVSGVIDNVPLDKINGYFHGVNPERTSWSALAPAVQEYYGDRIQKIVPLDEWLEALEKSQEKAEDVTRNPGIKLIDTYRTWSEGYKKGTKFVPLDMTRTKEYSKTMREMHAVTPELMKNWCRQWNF

[4] = molecular target: T1, carboxylic acid reductase (aryl aldehyde oxidoreductase); experiment: Substrate specificity of crude carboxylic acid reductase (100,000×g supernatant); assay type: biochemical, Nocardia sp. NRRL 5646; parameters: Crude enzyme preparations consisting of 100,000×g supernatants were used in this study; endogenous in cells; host or cells: Nocardia sp; NRRL 5646, crude 100,000×g supernatant
Experimental: as §1
Crude enzyme preparations consisting of 100,000×g supernatants were used in this study. […] The relative rate of reduction for each carboxylic acid derivative is expressed as the percentage of the initial rate of benzoate reduction.
The range of oxidoreductase activities of crude, 100,000×g Nocardia extract with a variety of substrates was investigated. Various substituted 2-, 3- and 4-substituted benzoates were examined, including a range of ring-activating and ring-deactivating functional groups. Benzoates substituted with halogens, methyl, methoxy, hydroxy, acetyl, nitro, benzoyl, phenyl, and phenoxyl groups as well as aryl-ring systems containing two (naphthalene) and three (fluorene) rings, and heterocyclic aromatic acids including furoic, nicotinic and indole carboxylic acids were considered. In addition, one cinnamic acid derivative, phenyl-acetate, phenyl-malonate, phenyl-succinate and 2-phenylpropionic acid were studied.

T1 sequence (Q6RKB1 whole entry): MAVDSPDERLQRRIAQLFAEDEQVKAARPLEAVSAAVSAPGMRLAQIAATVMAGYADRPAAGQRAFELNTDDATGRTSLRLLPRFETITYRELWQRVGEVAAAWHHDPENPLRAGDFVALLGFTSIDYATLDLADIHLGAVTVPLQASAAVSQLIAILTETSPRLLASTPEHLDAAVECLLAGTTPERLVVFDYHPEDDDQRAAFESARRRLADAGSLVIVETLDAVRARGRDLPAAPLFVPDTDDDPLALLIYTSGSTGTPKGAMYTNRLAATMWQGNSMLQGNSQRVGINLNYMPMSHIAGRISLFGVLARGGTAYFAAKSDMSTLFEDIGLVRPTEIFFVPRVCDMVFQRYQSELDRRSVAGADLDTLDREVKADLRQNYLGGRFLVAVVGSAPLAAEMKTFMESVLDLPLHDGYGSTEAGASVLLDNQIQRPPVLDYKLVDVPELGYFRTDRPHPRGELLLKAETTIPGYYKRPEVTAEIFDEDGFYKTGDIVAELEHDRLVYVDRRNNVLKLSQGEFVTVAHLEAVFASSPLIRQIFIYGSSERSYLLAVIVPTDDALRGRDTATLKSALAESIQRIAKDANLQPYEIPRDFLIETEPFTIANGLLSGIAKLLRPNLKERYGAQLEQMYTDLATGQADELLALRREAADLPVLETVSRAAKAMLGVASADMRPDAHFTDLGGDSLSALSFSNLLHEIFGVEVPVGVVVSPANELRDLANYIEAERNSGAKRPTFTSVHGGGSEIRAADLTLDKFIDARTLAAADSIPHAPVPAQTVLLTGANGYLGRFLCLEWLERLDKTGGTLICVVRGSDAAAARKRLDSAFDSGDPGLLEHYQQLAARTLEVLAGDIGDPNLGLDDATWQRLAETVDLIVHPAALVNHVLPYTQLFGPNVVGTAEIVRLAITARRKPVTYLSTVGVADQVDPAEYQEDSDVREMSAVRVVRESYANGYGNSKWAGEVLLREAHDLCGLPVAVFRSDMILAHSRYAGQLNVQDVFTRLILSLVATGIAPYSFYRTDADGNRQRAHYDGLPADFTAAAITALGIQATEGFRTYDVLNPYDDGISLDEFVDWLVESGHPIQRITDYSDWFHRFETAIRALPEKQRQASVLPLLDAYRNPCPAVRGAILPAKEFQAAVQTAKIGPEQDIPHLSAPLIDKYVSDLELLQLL

SMILES: O=C(O)c1ccccc1 [benzoic acid]
- inhibition of the enzyme by benzoate ([1]; benzoate concentration up to 2 mM): no inhibition was observed
- apparent Km relative to Km reported for the enzyme from Nocardia asteroides ([1]; higher than values reported by Kato et al.): more than 1000 fold
- turnover number ([1]; pseudo-first order reaction conditions): 126 min⁻¹
- Vmax [1]: 0.902 ± 0.04 μmol/min/mg of protein
- Vmax ([1]; listed as benzoate): 0.902±0.04 μmol/min/mg of protein
- fold induction at 5000 µg/mL [2]: ≤ 10
- Km [3]: 63 µM
- benzoate concentration at which activity is inhibited [3]: 300 µM
- Relative Activity ([4]; 5 mM substrate, 0.15 mM NADPH, 1 mM ATP, 50 mM Tris-HCl pH 7.5, percentage of the initial rate of benzoate reduction): 100 percentage
- quality as substrate of the enzyme (in words) ([4]; substrates of Table 2): best substrates
- rate of benzoate reduction ([4]; typical, crude enzyme, 5 mM): 0.066 ΔA340 /min
- rate of benzoate reduction (equivalent) ([4]; typical, crude enzyme, 5 mM): 10.6 µM/min
